From patent publication US9701707B2, “Methods of synthesizing substituted purine compounds” (Epizyme, Inc., priority 2013, dated 2017)

Tests used:
Type in all cases: physicochemical
[1] = Equilibrium solubility in aqueous media; settings: for Solubility: LOD 0.1 μg/ml
Description: (§1) Approximately 10 mg of Form B was weighed into a 1-ml glass vial followed by addition of 0.5 ml relevant media. Each sample was continuously stirred using a magnetic stir bar at 25° C. for 24 h. The suspension was then filtered using a nylon membrane with a pore diameter of 0.22 μm. The filtrates were diluted for HPLC analysis and final pH was measured. The solid residue of each sample was collected for XRPD analysis.
The solubilities of Form B in water and five different pH values at 25° C. were determined by HPLC after 24 h equilibration. Solubility data for Form B was obtained across the physiological pH by using buffer solutions from pH 2 to pH 10.
Preparation of pH Buffers • pH 2: 0.01N HCl solution. Dilute 1 ml of 1 N HCl with H2O up to a total volume of 100 ml. Measure the pH and precisely adjust to pH=2.00 using a few microliters of 1N HCl or 1N NaOH. • pH 4: 50 mM Na citrate buffer. Prepare a 50 mM citric acid solution by diluting 10 ml of 1N citric acid with H2O up to a total volume of 200 ml. Slowly add solid NaOH under stirring to increase the pH to 3.8-4.0 and use a few microliters of 1N NaOH for final adjustment to pH 4.00. • pH 6: 50 mM Na citrate buffer. Use the same procedure as the pH 4 buffer and adjust to pH=6.00 • pH 8: 50 mM Na phosphate buffer. Prepare a 50 mM NaH2PO4 solution by dissolving 6.00 g NaH2PO4 in 1 L of H2O and a 50 mM Na2HPO4 solution by dissolving 7.10 g in 1 L of H2O. Mix 10 ml of the NaH2PO4 solution with 140 ml of the Na2HPO4 solution in a beaker. Adjust to pH 8.00 by addition of small amounts of 50 mM NaH2PO4 or Na2HPO4 solution. • pH 10: 50 mM Na carbonate buffer. Prepare a 50 mM carbonate solution by dissolving 840 mg of sodium bicarbonate (NaHCO3) in about 180 ml of H2O. Slowly adjust the pH to 10.0±0.1 by addition of 1N NaOH. Add water to reach the total volume of 200 ml and adjust to pH 10.00 with 1N NaOH.

[2] = Equilibrium solubility in organic solvents; settings: RT; for Remaining Solid: XRPD; for solubility at 24 h: organic solvent or mixture, thermodynamic from solid
Description: as §1, with “analysis. The solubility of Form B was also determined in commonly used organic solvents (diluents or HPLC mobile phase). The solubility data summarized in Table 10 indicates Form B is quite soluble in MeOH, EtOH, and IPA.” for “analysis.”

[3] = Solid-state stability (chemical and physical); settings: 5° C. Closed Dish, 7 Days
Description: Chemical Stability: Accurately weighed ˜10 mg Form B was placed into four 10-ml volumetric flasks. The samples were stored at 5° C. closed dish, 25° C./57% RH open dish, 40° C./75% RH open dish, and 60° C. closed dish for 7 days. The sample stored at 5° C. was used as a control. Assay and total related substances for each sample were checked at the end of 7 days.
Physical Stability: Accurately weighed ˜15 mg of Form B was placed into 5-ml glass vials and the samples were stored at 5° C. closed dish, 25° C./57% RH open dish, 40° C./75% RH open dish, and 60° C. closed dish for 7 days. Samples were analyzed by XRPD and TGA (FIG. 24).

[4] = Solid-state photostability
Description: The solid-state photostability of EP-1 trihydrate (x is 3) was assessed upon exposure to UV/Vis light according to ICH guidelines. Loss of claim %, loss of area %, and degradates were evaluated versus dark control samples.
Solid-State Photostability: Weighed ˜5 mg Form B into glass vials with 2 vials covered with foil as the controls. Put these 2 samples with their controls into chamber and expose them to Vis (10 Kilo lux) for 120 hrs followed by UV (10 W/m^2) for 20 hrs (per ICH guidelines). At the end of Vis, take 1 sample and 1 control out for analysis and the others were taken out after both Vis and UV exposure.

Solution photostability = test: Solution photostability
Description: Solution Photostability: Weighed ˜1 mg of Form B and dissolved in 3 solutions at different pHs (0.01 N HCl, 0.01 N NaOH and water). Methanol was added as a co-solvent to dissolve Form B in solutions (i.e., 10% (v/v) methanol in 0.01 N HCl, 20% (v/v) in water and 30% (v/v) in 0.01 N NaOH), the final concentration was 0.1 mg/mL. For each solution, 1 sample and 1 control covered in foil were put into the photo chamber for Vis study (2 vials total for each solution). Measure the concentration and monitor the degradation.

[5] = Bulk control (covered with foil), Vis Stability (1.2 Mil lux-hours)
[6] = Bulk control (covered with foil), Vis-UV stability (1.2 Mil lux-hours + 200 Watt-hours/m^2)
[7] = Bulk, Vis Stability (1.2 Mil lux-hours)
[8] = Bulk, Vis-UV stability (1.2 Mil lux-hours + 200 Watt-hours/m^2)
[9] = 0.01N HCl Dark, Vis Stability (1.2 Mil lux-hours), final pH 2.1
[10] = 0.01N HCl Dark, Vis-UV Stability (1.2 Mil lux-hours + 200 Watt-hours/m^2), final pH 2.1
[11] = 0.01N HCl Light, Vis Stability (1.2 Mil lux-hours), final pH 2.1
[12] = 0.01N HCl Light, Vis-UV Stability (1.2 Mil lux-hours + 200 Watt-hours/m^2), final pH 2.1
[13] = 0.01N NaOH Dark, Vis Stability (1.2 Mil lux-hours), final pH 11.6, precipitation observed
[14] = 0.01N NaOH Dark, Vis-UV Stability (1.2 Mil lux-hours + 200 Watt-hours/m^2), final pH 11.7, precipitation observed
[15] = 0.01N NaOH Light, Vis Stability (1.2 Mil lux-hours), final pH 11.7, precipitation observed
[16] = 0.01N NaOH Light, Vis-UV Stability (1.2 Mil lux-hours + 200 Watt-hours/m^2), final pH 11.7, precipitation observed
[17] = H2O Dark, Vis Stability (1.2 Mil lux-hours), final pH 7.7
[18] = H2O Dark, Vis-UV Stability (1.2 Mil lux-hours + 200 Watt-hours/m^2), final pH 8.1
[19] = H2O Light, Vis Stability (1.2 Mil lux-hours), final pH 7.3
[20] = H2O Light, Vis-UV Stability (1.2 Mil lux-hours + 200 Watt-hours/m^2), final pH 7.3

Solubility ([1]; 50 mM Na carbonate buffer, pH (initial) 10.0, pH (final) 10.0, RT, 24 h): <LOD | Solubility ([1]; 50 mM Na phosphate buffer, pH (initial) 8.0, pH (final) 8.0, RT, 24 h): <LOD^§ | solubility at 24 h ([1]; 50 mM sodium citrate buffer, 25 °C, pH 6, aqueous buffer, thermodynamic from solid, 50 mM sodium citrate, pH (initial) 6.0, pH (final) 6.0, RT): 0.08 mg/mL | Remaining Solid ([1]; Water, RT, 24 h, XRPD): Form B | Remaining Solid ([2]; Acetone): Form B | Remaining Solid ([2]; Acetonitrile): Form B | solubility at 24 h ([2]; Ethanol): > 87 mg/mL | solubility at 24 h ([2]; Isopropanol): > 129 mg/mL | solubility at 24 h ([2]; Methanol): > 200 mg/mL | Physical: XRPD [3]: Form B | Chemical: % Claim (Cs/Ci × 100%) ([3]; sample used as standard for the calculation): 100.0^& % | % area (100% − TRS%) [4, 5]: 99.7% | % claim (Cs/Ci × 100%) [4, 5]: 100.0% | % area (100% − TRS%) [4, 6]: 99.8% | % claim (Cs/Ci × 100%) [4, 6]: 100.0% | % area (100% − TRS%) [4, 7]: 99.8% | % claim (Cs/Ci × 100%) [4, 7]: 101.1% | % area (100% − TRS%) [4, 8]: 99.8% | % claim (Cs/Ci × 100%) [4, 8]: 99.6% | solid-state photostability ([4]; exposure to full ICH photostability requirement, versus dark control): stable | % area (100% − TRS%) (Solution photostability; [9]): 99.4% | % claim (Cs/Ci × 100%) (Solution photostability; [9]): 100.0% | % area (100% − TRS%) (Solution photostability; [10]): 99.9% | % claim (Cs/Ci × 100%) (Solution photostability; [10]): 100.0% | % area (100% − TRS%) (Solution photostability; [11]): 98.5% | % claim (Cs/Ci × 100%) (Solution photostability; [11]): 98.8% | % area (100% − TRS%) (Solution photostability; [12]): 99.9% | % claim (Cs/Ci × 100%) (Solution photostability; [12]): 99.9% | % area (100% − TRS%) (Solution photostability; [13]): 99.7% | % claim (Cs/Ci × 100%) (Solution photostability; [13]): 100.0% | % area (100% − TRS%) (Solution photostability; [14]): 100.0% | % claim (Cs/Ci × 100%) (Solution photostability; [14]): 100.0% | % area (100% − TRS%) (Solution photostability; [15]): 99.6% | % claim (Cs/Ci × 100%) (Solution photostability; [15]): 44.5% | % area (100% − TRS%) (Solution photostability; [16]): 99.3% | % claim (Cs/Ci × 100%) (Solution photostability; [16]): 66.3% | % area (100% − TRS%) (Solution photostability; [17]): 100.0% | % claim (Cs/Ci × 100%) (Solution photostability; [17]): 100.0% | % area (100% − TRS%) (Solution photostability; [18]): 100.0% | % claim (Cs/Ci × 100%) (Solution photostability; [18]): 100.0% | % area (100% − TRS%) (Solution photostability; [19]): 99.6% | % claim (Cs/Ci × 100%) (Solution photostability; [19]): 98.5% | % area (100% − TRS%) (Solution photostability; [20]): 99.3% | % claim (Cs/Ci × 100%) (Solution photostability; [20]): 94.7% | solution photostability (Solution photostability; in water and 0.01N HCl solution, exposure to UV/Vis): stable
Compound: CC(C)N(C[C@H]1O[C@@H](n2cnc3c(N)ncnc32)[C@H](O)[C@@H]1O)[C@H]1C[C@@H](CCc2nc3cc(C(C)(C)C)ccc3[nH]2)C1 [Form B, (2R,3R,4S,5R)-2-(6-amino-9H-purin-9-yl)-5-((((1r,3S)-3-(2-(5-(tert-butyl)-1H-benzo[d]imidazol-2-yl)ethyl)cyclobutyl)(isopropyl)amino)methyl)tetrahydrofuran-3,4-diol trihydrate]
